Test results reported in patent publication US20070015723A1, “Antiviral oligonucleotides having a conserved G4 core sequence” (priority 1992, published 2007).
Strand notation (5' to 3'): a small letter for the sugar, then the base; units joined by * are phosphorothioate-linked, units joined directly phosphodiester-linked; [ ] holds rarer units or linkages, { } end groups; capitals alone tell only the bases. d = 2'-deoxy (DNA)

Target: T1, human type II phospholipase A2 (Homo sapiens, UniProt P14555)
T1 sequence (P14555 21-144): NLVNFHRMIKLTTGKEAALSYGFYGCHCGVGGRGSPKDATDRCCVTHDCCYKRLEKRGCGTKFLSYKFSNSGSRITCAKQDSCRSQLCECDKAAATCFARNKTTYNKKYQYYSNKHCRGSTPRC
Assay: Human type II phospholipase A2 enzyme assay (3H-oleic acid labelled E. coli substrate)
Type: biochemical

[1] = 1 μM, Table 5, two separate experiments

| Substance | % Inhibition (1 μM) (1 μM, Table 4) | also measured |
| --- | --- | --- |
| ISIS 4962: GGG TGG GTA T, SEQ ID NO 108 (dG*dG*dG*dT*dG*dG*dG*dT*dA*dT) |  | % Inhibition (1 μM) [1]: 36.3% |
| ISIS 3632: CCAGGAGAGGTCGGTAAGGCG, phosphorothioate, SEQ ID NO 82 (dC*dC*dA*dG*dG*dA*dG*dA*dG*dG*dT*dC*dG*dG*dT*dA*dA*dG*dG*dC*dG) | 29.2% |  |
| ISIS 4133: AGTGCACGTTGAGTATGTGAG, phosphorothioate, SEQ ID NO 95 (dA*dG*dT*dG*dC*dA*dC*dG*dT*dT*dG*dA*dG*dT*dA*dT*dG*dT*dG*dA*dG) | 37.3% |  |
| ISIS 4947: AGG TGG GTA TAG, SEQ ID NO 103 (dA*dG*dG*dT*dG*dG*dG*dT*dA*dT*dA*dG; aptamer) |  | % Inhibition (1 μM) [1]: 22.7% |
| ISIS 3475: TCTCATTCTGGGTGGGTATAG, phosphorothioate, SEQ ID NO 71 (dT*dC*dT*dC*dA*dT*dT*dC*dT*dG*dG*dG*dT*dG*dG*dG*dT*dA*dT*dA*dG) | 67.0% |  |
| ISIS 3470: GTAGGGAGGGAGGGTATGAGA, phosphorothioate, SEQ ID NO 66 (dG*dT*dA*dG*dG*dG*dA*dG*dG*dG*dA*dG*dG*dG*dT*dA*dT*dG*dA*dG*dA) | 88.9% | inhibition of human type II phospholipase A2 (1 μM): completely inhibited |
| ISIS 3480: TTGCTTTATTCAGAAGAGACC, phosphorothioate, SEQ ID NO 76 (dT*dT*dG*dC*dT*dT*dT*dA*dT*dT*dC*dA*dG*dA*dA*dG*dA*dG*dA*dC*dC) | 24.5% |  |
| GGG TGG GTA TAG AAG GGC: truncated version of ISIS 3196, SEQ ID NO 97 (dG*dG*dG*dT*dG*dG*dG*dT*dA*dT*dA*dG*dA*dA*dG*dG*dG*dC) |  | % Inhibition (1 μM) [1]: 85.3% |
| ISIS 3184: TTCATGGTAAGAGTTCTTGGG, phosphorothioate, SEQ ID NO 60 (dT*dT*dC*dA*dT*dG*dG*dT*dA*dA*dG*dA*dG*dT*dT*dC*dT*dT*dG*dG*dG) | 25.1% |  |
| ISIS 3697: ACTCTTACCACAGGTGATTCT, phosphorothioate, SEQ ID NO 93 (dA*dC*dT*dC*dT*dT*dA*dC*dC*dA*dC*dA*dG*dG*dT*dG*dA*dT*dT*dC*dT) | 39% |  |
| ISIS 3477: GTGGAGGAGAGCAGTAGAAGG, phosphorothioate, SEQ ID NO 73 (dG*dT*dG*dG*dA*dG*dG*dA*dG*dA*dG*dC*dA*dG*dT*dA*dG*dA*dA*dG*dG) | 54.7% |  |
| ISIS 3479: CCGGAGTACAGGTTCTTTGGT, phosphorothioate, SEQ ID NO 75 | 42.3% |  |
| ISIS 3669: GGTGACAAATGCAGATGGACT, phosphorothioate, SEQ ID NO 87 (dG*dG*dT*dG*dA*dC*dA*dA*dA*dT*dG*dC*dA*dG*dA*dT*dG*dG*dA*dC*dT) | 34.7% |  |
| ISIS 3471: AAGGAACTTGGTTAGGGTAGG, phosphorothioate, SEQ ID NO 67 (dA*dA*dG*dG*dA*dA*dC*dT*dT*dG*dG*dT*dT*dA*dG*dG*dG*dT*dA*dG*dG) | 34.5% |  |
| ISIS 3472: TGGGTGAGGGATGCTTTCTGC, phosphorothioate, SEQ ID NO 68 (dT*dG*dG*dG*dT*dG*dA*dG*dG*dG*dA*dT*dG*dC*dT*dT*dT*dC*dT*dG*dC) | 69.0% |  |
| ISIS 4956: GGG CGG GTA TAG, SEQ ID NO 105 (dG*dG*dG*dC*dG*dG*dG*dT*dA*dT*dA*dG; aptamer) |  | % Inhibition (1 μM) [1]: 92.0% |
| ISIS 3630: TCTCATACCCTCCCTCCCTAC, phosphorothioate, SEQ ID NO 80 (dT*dC*dT*dC*dA*dT*dA*dC*dC*dC*dT*dC*dC*dC*dT*dC*dC*dC*dT*dA*dC) | 17.6% |  |
| ISIS 3676: AGCTCTTACCAAAGATCATGA, phosphorothioate, SEQ ID NO 89 (dA*dG*dC*dT*dC*dT*dT*dA*dC*dC*dA*dA*dA*dG*dA*dT*dC*dA*dT*dG*dA) | 24.5% |  |
| TAG AAG GGC TCC: truncated version of ISIS 3196, SEQ ID NO 101 (dT*dA*dG*dA*dA*dG*dG*dG*dC*dT*dC*dC) |  | % Inhibition (1 μM) [1]: 0% |
| ISIS 3478: TGGTTAAGCACGGAGTTGAGG, phosphorothioate, SEQ ID NO 74 (dT*dG*dG*dT*dT*dA*dA*dG*dC*dA*dC*dG*dG*dA*dG*dT*dT*dG*dA*dG*dG) | 26.4% |  |
| ISIS 3679: AGTAGGCCTGGAAGGAAATTT, phosphorothioate, SEQ ID NO 90 (dA*dG*dT*dA*dG*dG*dC*dC*dT*dG*dG*dA*dA*dG*dG*dA*dA*dA*dT*dT*dT) | 30.3% |  |
| ISIS 3182: CAGAGGACTCCAGAGTTGTAT, phosphorothioate, SEQ ID NO 59 (dC*dA*dG*dA*dG*dG*dA*dC*dT*dC*dC*dA*dG*dA*dG*dT*dT*dG*dT*dA*dT) | 30.2% |  |
| ISIS 1573: phosphorothioate deoxyoligonucleotide, SEQ ID NO: 120 (dG*dA*dG*dG*dC*dT*dG*dA*dG*dG*dT*dG*dG*dG*dA*dG*dG*dA) |  | inhibition of phospholipase A2 (concentrations as high as 10 μM): did not significantly inhibit |

| Substance | % Inhibition (1 μM) (1 μM, Table 4) | also measured |
| --- | --- | --- |
| GTA TAG AAG GGC TCC: truncated version of ISIS 3196, SEQ ID NO 100 (dG*dT*dA*dT*dA*dG*dA*dA*dG*dG*dG*dC*dT*dC*dC) |  | % Inhibition (1 μM) [1]: 9.2% |
| ISIS 3481: TTTTTGATTTGCTAATTGCTT, phosphorothioate, SEQ ID NO 77 (dT*dT*dT*dT*dT*dG*dA*dT*dT*dT*dG*dC*dT*dA*dA*dT*dT*dG*dC*dT*dT) | 2.2% | effect on substrate kinetics (increasing E. coli substrate, ISIS 3481 at 0.2 μM and 2 μM): did not modify the substrate kinetics |
| ISIS 3671: TAGGAGGGTCTTCATGGTAAG, phosphorothioate, SEQ ID NO 88 (dT*dA*dG*dG*dA*dG*dG*dG*dT*dC*dT*dT*dC*dA*dT*dG*dG*dT*dA*dA*dG) | 49.3% |  |
| ISIS 3473: CTGCCTGGCCTCTAGGATGGG, phosphorothioate, SEQ ID NO 69 (dC*dT*dG*dC*dC*dT*dG*dG*dC*dC*dT*dC*dT*dA*dG*dG*dA*dT*dG*dG*dG) | 25.9% |  |
| ISIS 3688: TGGCCTCACCGATCCGTTGCA, phosphorothioate, SEQ ID NO 91 (dT*dG*dG*dC*dC*dT*dC*dA*dC*dC*dG*dA*dT*dC*dC*dG*dT*dT*dG*dC*dA) | 43.1% |  |
| ISIS 3185: CAAAGATCATGATCACTGCCA, phosphorothioate, SEQ ID NO 61 (dC*dA*dA*dA*dG*dA*dT*dC*dA*dT*dG*dA*dT*dC*dA*dC*dT*dG*dC*dC*dA) | 22.7% |  |
| ISIS 3192: GGAAGGTTTCGAGQGAAGAGG, phosphorothioate, SEQ ID NO 63 | 28.1% |  |
| ISIS 3663: GTCTGCTGGGTGGTCTGAACT, phosphorothioate, SEQ ID NO 85 | 16.3% |  |
| ISIS 4149: CTACGGCAGAGACGAGATAGC, phosphorothioate, SEQ ID NO 96 (dC*dT*dA*dC*dG*dG*dC*dA*dG*dA*dG*dA*dC*dG*dA*dG*dA*dT*dA*dG*dC) | 20.2% |  |
| ISIS 3712: AGGAGTCCTGTTTTGAAATCA, phosphorothioate, SEQ ID NO 94 (dA*dG*dG*dA*dG*dT*dC*dC*dT*dG*dT*dT*dT*dT*dG*dA*dA*dA*dT*dC*dA) | 31.8% |  |
| TGG GTA TAG AAG GGC: truncated version of ISIS 3196, SEQ ID NO 102 (dT*dG*dG*dG*dT*dA*dT*dA*dG*dA*dA*dG*dG*dG*dC) |  | % Inhibition (1 μM) [1]: 33.5% |
| GGG TGG GTA TAG AAG: truncated version of ISIS 3196, SEQ ID NO 98 (dG*dG*dG*dT*dG*dG*dG*dT*dA*dT*dA*dG*dA*dA*dG) |  | % Inhibition (1 μM) [1]: 82.5% |
| ISIS 3181: TCTGCCCCGGCCGTCGCTCCC, phosphorothioate, SEQ ID NO 58 (dT*dC*dT*dG*dC*dC*dC*dC*dG*dG*dC*dC*dG*dT*dC*dG*dC*dT*dC*dC*dC) | 42.7% |  |
| ISIS 3665: GGACTGGCCTAGCTCCTCTGC, phosphorothioate, SEQ ID NO 86 (dG*dG*dA*dC*dT*dG*dG*dC*dC*dT*dA*dG*dC*dT*dC*dC*dT*dC*dT*dG*dC) | 45.8% |  |
| ISIS 4957: GGG TGG ATA TAG, SEQ ID NO 106 (dG*dG*dG*dT*dG*dG*dA*dT*dA*dT*dA*dG; aptamer) |  | % Inhibition (1 μM) [1]: 81.9% |
| ISIS 4946: GGG TGG GAA TAG, SEQ ID NO 107 (dG*dG*dG*dT*dG*dG*dG*dA*dA*dT*dA*dG; aptamer) |  | % Inhibition (1 μM) [1]: 73.2% |
| ISIS 3631: AGGTCGAGGAGTGGTCTGAGC, phosphorothioate, SEQ ID NO 81 (dA*dG*dG*dT*dC*dG*dA*dG*dG*dA*dG*dT*dG*dG*dT*dC*dT*dG*dA*dG*dC) | 20.7% | I.C.50 relative to ISIS 3196 (fold higher): approximately 10 fold |
| ISIS 4955: GGG AGG GTA TAG, SEQ ID NO 104 (dG*dG*dG*dA*dG*dG*dG*dT*dA*dT*dA*dG; aptamer) |  | % Inhibition (1 μM) [1]: 97.5% |
| ISIS 3694: ACAGCAGCTGTGAGGAGACAC, phosphorothioate, SEQ ID NO 92 (dA*dC*dA*dG*dC*dA*dG*dC*dT*dG*dT*dG*dA*dG*dG*dA*dG*dA*dC*dA*dC) | 28.2% |  |
| ISIS 3476: GCTGGAAATCTGCTGGATGTC, phosphorothioate, SEQ ID NO 72 (dG*dC*dT*dG*dG*dA*dA*dA*dT*dC*dT*dG*dC*dT*dG*dG*dA*dT*dG*dT*dC) | 43.4% |  |
| ISIS 3629: CACCCCTCGTTGCTGAGTCCC, phosphorothioate, SEQ ID NO 79 (dC*dA*dC*dC*dC*dC*dT*dC*dG*dT*dT*dG*dC*dT*dG*dA*dG*dT*dC*dC*dC) | 20.5% |  |
| ISIS 3628: GGAGCCCTfCTATACCCACCC, phosphorothioate, SEQ ID NO 78 | 13.6% | I.C.50 relative to ISIS 3196 (fold higher): approximately 10 fold |
| ISIS 3474: ATAGAAGGGCTCCTGCCTGGC, phosphorothioate, SEQ ID NO 70 (dA*dT*dA*dG*dA*dA*dG*dG*dG*dC*dT*dC*dC*dT*dG*dC*dC*dT*dG*dG*dC) | 13.3% |  |
